Measurements taken from patent US10336803B2, “Insulin secreting polypeptides” (Mayo Foundation for Medical Education and Research, priority 2013, dated 2019).
No end group written: not given here.

Experiments:
normal rats [1] = test: CRRL-090 ISP intravenous infusion in normal rats: blood glucose and plasma insulin; format: in vivo, rat; conditions: 1 pmol/kg/minute for 210 minutes intravenous infusion
Procedure: CRRL-090 ISP was synthesized by direct protein synthesis and tested for biological activity in normal rats as follows. Two groups of normal rats were used. The first group included five normal rats, which were administered normal saline. The second group included seven normal rats, which were administered CRRL-090 (1 pmol/kg/minute for 210 minutes). Both administrations were via intravenous infusion.

[2] = system: diabetic rats (streptozotocin); test: CRRL-090 ISP chronic subcutaneous pump treatment of streptozotocin diabetic rats; format: in vivo, male Wistar rats
Procedure: CRRL-090 ISP was synthesized by direct protein synthesis and tested for biological activity in diabetic rats as follows. Three groups of male Wistar rats (six rats per group) were used: normal control group, diabetic control group, and diabetic group treated with CRRL-090 ISP. One dose of streptozotocin was administered intraperitoneally to induce diabetes in the rats of the diabetic control group and diabetic group treated with CRRL-090 ISP. Two months after induction of diabetes, ALZET pumps (obtained from DURECT Corporation, ALZET Osmotic Pumps, P.O. Box 530, Cupertino, Calif.; Model 1007D) configured to release 0.1 μg/kg/minute of CRRL-090 ISP or saline as control were serially implanted subcutaneously every 14 days over the course of one month (2 pumps, one on day 0 and another on day 14). Cardiac function was assessed by echocardiography, neurohormones were measured by radioimmunoassays. Fibrosis was determined by picrosirius red staining.

normal dogs = test: Chimeric polypeptide intravenous infusion in normal dogs: blood glucose, plasma insulin, plasma cGMP; format: in vivo, dog; conditions: normal dogs (n=2), intravenous infusion 10 or 100 pmol/kg/minute for 45 minutes; for plasma insulin: versus base line (FIG. 7); for plasma glucose: versus base line (FIG. 8); for plasma cGMP: versus base line (FIG. 9)
[3] = target: T1, GC-A particulate guanylate cyclase receptors (Homo sapiens, UniProt P16066); test: Cell cGMP assay in HEK293 cells stably transfected with GC-A; format: cell-based; conditions: 10^−10 M, 10^−8M, or 10^−6M polypeptide for 10 minutes (FIGS. 14, 15)
T1 construct: expressed in transfected cells; host or cells: HEK293
T1 sequence (P16066 33-1061): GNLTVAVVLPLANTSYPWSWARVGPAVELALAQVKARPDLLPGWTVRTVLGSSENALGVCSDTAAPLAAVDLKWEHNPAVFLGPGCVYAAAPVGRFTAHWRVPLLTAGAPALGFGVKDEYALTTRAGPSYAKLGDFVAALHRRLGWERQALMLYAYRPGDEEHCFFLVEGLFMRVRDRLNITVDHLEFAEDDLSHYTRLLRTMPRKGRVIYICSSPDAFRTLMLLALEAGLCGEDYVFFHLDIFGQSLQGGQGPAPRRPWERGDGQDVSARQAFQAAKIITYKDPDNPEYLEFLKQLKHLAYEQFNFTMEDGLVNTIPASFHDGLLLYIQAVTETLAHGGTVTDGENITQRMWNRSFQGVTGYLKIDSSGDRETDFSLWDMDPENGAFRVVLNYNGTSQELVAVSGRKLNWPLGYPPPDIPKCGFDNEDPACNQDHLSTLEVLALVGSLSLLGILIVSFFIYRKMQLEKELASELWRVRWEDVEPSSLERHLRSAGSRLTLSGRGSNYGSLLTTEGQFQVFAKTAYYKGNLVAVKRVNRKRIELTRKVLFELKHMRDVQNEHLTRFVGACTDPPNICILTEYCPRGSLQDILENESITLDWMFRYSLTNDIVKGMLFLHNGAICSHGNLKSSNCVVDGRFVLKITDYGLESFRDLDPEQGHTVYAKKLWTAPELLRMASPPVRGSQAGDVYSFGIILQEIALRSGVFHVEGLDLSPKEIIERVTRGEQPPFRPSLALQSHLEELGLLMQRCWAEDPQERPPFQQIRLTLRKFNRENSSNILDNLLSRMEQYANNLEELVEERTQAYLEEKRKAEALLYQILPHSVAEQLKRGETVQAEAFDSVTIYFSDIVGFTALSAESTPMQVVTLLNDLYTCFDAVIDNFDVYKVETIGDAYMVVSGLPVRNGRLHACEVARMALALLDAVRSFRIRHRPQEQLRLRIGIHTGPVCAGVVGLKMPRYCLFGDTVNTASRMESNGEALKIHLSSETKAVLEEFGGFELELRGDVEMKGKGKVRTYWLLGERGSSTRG

normal rats [4] = test: Chimeric polypeptide infusion in normal rats: blood glucose and plasma insulin; format: in vivo, rat; conditions: IV infusion 1 pmol/kg/minute for 210 minutes
[5] = target: T2, GC-B particulate guanylate cyclase receptors (Homo sapiens, UniProt P20594); test: Cell cGMP assay in HEK293 cells stably transfected with GC-B; format: cell-based; conditions: 10^−10 M, 10^−8M, or 10^−6M polypeptide for 10 minutes (FIGS. 14, 15)
T2 construct: expressed in transfected cells; host or cells: HEK293
T2 sequence (P20594 23-1047): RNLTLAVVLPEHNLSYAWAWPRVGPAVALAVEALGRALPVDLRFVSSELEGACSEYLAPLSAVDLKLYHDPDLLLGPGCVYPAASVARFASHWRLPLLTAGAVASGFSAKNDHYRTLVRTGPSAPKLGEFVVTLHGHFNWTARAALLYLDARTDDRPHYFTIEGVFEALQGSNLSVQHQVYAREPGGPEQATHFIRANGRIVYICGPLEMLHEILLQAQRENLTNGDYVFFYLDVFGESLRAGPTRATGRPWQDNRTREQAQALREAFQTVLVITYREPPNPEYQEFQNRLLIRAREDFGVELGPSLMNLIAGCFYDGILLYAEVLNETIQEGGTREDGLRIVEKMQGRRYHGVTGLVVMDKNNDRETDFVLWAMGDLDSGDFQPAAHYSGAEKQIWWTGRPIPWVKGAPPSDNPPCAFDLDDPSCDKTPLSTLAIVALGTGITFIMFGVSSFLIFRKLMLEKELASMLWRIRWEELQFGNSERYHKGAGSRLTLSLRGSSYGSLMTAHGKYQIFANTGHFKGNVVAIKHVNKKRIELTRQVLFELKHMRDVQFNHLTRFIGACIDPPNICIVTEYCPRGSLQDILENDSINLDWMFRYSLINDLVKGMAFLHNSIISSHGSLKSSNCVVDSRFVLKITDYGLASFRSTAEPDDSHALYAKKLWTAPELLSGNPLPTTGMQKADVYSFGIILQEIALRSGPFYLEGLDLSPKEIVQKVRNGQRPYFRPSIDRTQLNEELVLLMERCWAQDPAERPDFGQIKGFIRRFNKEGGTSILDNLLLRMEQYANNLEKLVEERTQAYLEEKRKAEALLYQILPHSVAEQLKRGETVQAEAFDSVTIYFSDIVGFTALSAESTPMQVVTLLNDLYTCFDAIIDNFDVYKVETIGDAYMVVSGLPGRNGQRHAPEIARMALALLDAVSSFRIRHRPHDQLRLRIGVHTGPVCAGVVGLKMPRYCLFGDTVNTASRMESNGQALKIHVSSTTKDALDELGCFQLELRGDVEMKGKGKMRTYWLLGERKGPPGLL

diabetic rats = test: Chronic CRRL-094 ISP-NP subcutaneous pump treatment of diabetic rats; format: in vivo, male Wistar rats; conditions: ALZET pumps subcutaneously 1 pmol/kg/minute
Source text: Three groups of male Wistar rats were used: (1) normal non-diabetic control rats, (2) diabetic control rats, and (3) diabetic rats treated with CRRL-094 ISP-NP. Two months after induction of diabetes, ALZET pumps (obtained from DURECT Corporation, ALZET Osmotic Pumps, P.O. Box 530, Cupertino, Calif.; Model 1007D) filled with CRRL-094 ISP-NP in saline (dose=1 pmol/kg/minute) or saline as control were serially implanted subcutaneously every 14 days over the course of one month. After four weeks of treatment, blood glucose levels, plasma insulin levels, body weight, plasma and urine cGMP levels, and left ventricular hypertrophy were measured. Blood glucose levels and body weight also were measured after two weeks of treatment.

[6] = after four weeks, compared to diabetic rats treated with saline (FIG. 19)

Substance	blood glucose levels (normal rats [1]; compared to control rats that received saline (FIG. 1))	plasma insulin (normal rats [1]; compared to control rats that received saline (FIG. 2))	blood glucose levels ([2]; ALZET pumps subcutaneously 0.1 μg/kg/minute for one month starting two months after streptozotocin, compared to diabetic controls (FIG. 3))	plasma insulin levels ([2]; ALZET pumps subcutaneously 0.1 μg/kg/minute for one month, three months after streptozotocin, compared to diabetic controls (FIG. 4))	glomerular filtration rate (GFR) ([2]; ALZET pumps subcutaneously 0.1 μg/kg/minute for one month, three months after streptozotocin, compared to diabetic controls (FIG. 5))	left ventricular hypertrophy (LV/BW ratio) ([2]; ALZET pumps subcutaneously 0.1 μg/kg/minute for one month, three months after streptozotocin, compared to diabetic controls (FIG. 6))	plasma insulin (normal dogs)	plasma glucose (normal dogs)	plasma cGMP (normal dogs)	activation of GC-A receptors (cGMP levels) [3]	plasma insulin (normal rats [4]; compared to placebo control rats (FIGS. 10, 12))	blood glucose (normal rats [4]; compared to placebo control rats (FIGS. 11, 13))	activation of GC-B receptors (cGMP levels) [5]	plasma insulin (diabetic rats; after four weeks, compared to diabetic rats treated with saline (FIG. 17))	plasma cGMP (diabetic rats; [6])	urine cGMP (diabetic rats; [6])	left ventricular hypertrophy (Left Ventricular Mass, LVMd) (diabetic rats; after four weeks, compared to diabetic rats treated with saline (FIG. 20))	blood glucose (diabetic rats; four weeks, compared to diabetic rats treated with saline (FIG. 16))	body weight (diabetic rats; four weeks, compared to diabetic rats treated with saline (FIG. 18))
HGEGTFTSDSEAFIWLGR-amide (HGEGTFTSDSEAFIWLGR-NH2) [CRRL-090 ISP]	lower blood glucose levels	increased plasma insulin	reduced blood glucose levels	increased plasma insulin levels	increased glomerular filtration rate	less left ventricular hypertrophy	–	–	–	–	–	–	–	–	–	–	–	–	–
SPKMVQG-SGCFGRKMDRISSSSGLGCKVLRRHGEGTFTSDSEAFIWLGR [CRRL-092 ISP-NP]	–	–	–	–	–	–	increase in plasma insulin	reduction in plasma glucose	increase	activated the GC-A receptors	increased plasma insulin	lower blood glucose	but not the GC-B receptors	–	–	–	–	–	–
HGEGT-FTSDSEAFIWLGRRMDRIGLSKGCFGLKLDRIGSMSGLGCKVLRRH (HGEGTFTSDSEAFIWLGRRMDRIGLSKGCFGLKLDRIGSMSGLGCKVLRRH) [CRRL-094 ISP-NP]	–	–	–	–	–	–	increase in plasma insulin	reduction in plasma glucose	increase	activated both the GC-A and GC-B receptors	–	–	activated both the GC-A and GC-B receptors	increased plasma insulin	increased plasma and urine cGMP	increased plasma and urine cGMP	reduced left ventricular hypertrophy	reduced blood glucose	reduced body weight
